According to ChEMBL document CHEMBL3390834, “Development of second generation epigenetic agents” (Medchemcomm, 2012):
Blank lines part the entries; values can stand above or below the compound they belong to.

Assays:
[1] = molecular target: T1, Lysine-specific histone demethylase 1A (Homo sapiens, UniProt O60341); experiment: Inhibition of human LSD-1 by fluorescence-based assay
[2] = molecular target: Histone acetyltransferase p300 (Homo sapiens, UniProt Q09472)
Description: Inhibition of His6-tagged recombinant full length p300 (unknown origin) expressed in baculovirus infected insect Sf21 cells using [3H]acetyl-CoA as substrate preincubated for 10 mins followed by substrate addition measured after 10 mins by liquid scintillation counting analysis

Histone deacetylase = experiment: Inhibition of HDAC isolated from human HeLa cell nuclear extracts using Fluor de Lys as substrate after 30 mins by fluorescence assay; assay type: protein assay
[3] = molecular target: T2, NAD-dependent protein deacetylase sirtuin-2 (Homo sapiens, UniProt Q8IXJ6); experiment: Inhibition of SIRT-2 (unknown origin)
T2 sequence (Q8IXJ6 whole entry): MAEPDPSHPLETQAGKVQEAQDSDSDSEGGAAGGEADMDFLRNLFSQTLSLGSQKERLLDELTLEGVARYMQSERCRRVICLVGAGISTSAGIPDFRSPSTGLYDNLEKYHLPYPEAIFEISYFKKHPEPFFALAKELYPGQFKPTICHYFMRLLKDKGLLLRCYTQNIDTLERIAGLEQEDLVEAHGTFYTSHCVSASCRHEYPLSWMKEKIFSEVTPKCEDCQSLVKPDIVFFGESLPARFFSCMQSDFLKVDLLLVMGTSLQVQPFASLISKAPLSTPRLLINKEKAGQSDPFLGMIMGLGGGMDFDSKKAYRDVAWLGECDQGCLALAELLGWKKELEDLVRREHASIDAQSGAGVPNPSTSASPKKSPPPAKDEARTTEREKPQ

[4] = molecular target: T3, Lysine-specific demethylase 4E (Homo sapiens, UniProt B2RXH2); experiment: Binding affinity to JMJD2E (unknown origin)
T3 sequence (B2RXH2 whole entry): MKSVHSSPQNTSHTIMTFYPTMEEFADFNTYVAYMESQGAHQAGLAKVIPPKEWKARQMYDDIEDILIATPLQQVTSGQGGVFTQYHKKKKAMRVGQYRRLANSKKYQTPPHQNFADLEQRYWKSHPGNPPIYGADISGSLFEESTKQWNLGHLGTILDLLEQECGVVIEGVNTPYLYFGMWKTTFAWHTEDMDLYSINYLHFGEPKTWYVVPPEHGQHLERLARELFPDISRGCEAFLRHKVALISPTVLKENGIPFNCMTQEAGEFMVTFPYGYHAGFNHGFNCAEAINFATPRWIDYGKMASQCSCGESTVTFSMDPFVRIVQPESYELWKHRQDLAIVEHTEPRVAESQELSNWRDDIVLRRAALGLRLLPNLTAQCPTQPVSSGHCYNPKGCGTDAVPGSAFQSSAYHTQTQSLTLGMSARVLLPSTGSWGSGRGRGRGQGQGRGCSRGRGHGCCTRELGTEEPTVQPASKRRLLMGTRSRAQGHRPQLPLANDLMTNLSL

Egl nine homolog 1 = Egl nine homolog 1 (Homo sapiens, UniProt Q9GZT9); experiment: Inhibition of PHD-2 (unknown origin)
[5] = molecular target: Lysine-specific demethylase 2A (Homo sapiens, UniProt Q9Y2K7); experiment: Inhibition of FBXL11 (unknown origin) expressed in HEK293 cells; assay type: cell-based
Saccharomyces cerevisiae [6] = experiment: Selectivity for yeast Hst1p over yeast Sir2p
[7] = molecular target: Protein arginine N-methyltransferase 1 (Homo sapiens, UniProt Q99873); experiment: Inhibition of human recombinant PRMT-1 using Npl3p as substrate
Homo sapiens [8] = organism: Homo sapiens; experiment: Selectivity ratio of IC50 for human CARM-1 to IC50 for human recombinant PRMT-1
Homo sapiens [9] = organism: Homo sapiens; experiment: Selectivity ratio of IC50 for SET7 (unknown origin) to IC50 for human recombinant PRMT-2
[10] = molecular target: T3, Lysine-specific demethylase 4E
Description: Inhibition of N-terminal His-6-tagged human JMJD2E (1 to 337 residues) expressed in Escherichia coli by MALDI-TOF/MS analysis

Saccharomyces cerevisiae [11] = experiment: Selectivity for yeast Sir2p over yeast Hst1p
[12] = molecular target: T1, Lysine-specific histone demethylase 1A; experiment: Inhibition of N-terminal His-6-tagged full length human LSD-1 expressed in Escherichia coli BL21 (DE3) using H3K4me2 peptide as substrate by Western blotting analysis
CREB-binding protein = CREB-binding protein (Homo sapiens, UniProt Q92793); experiment: Inhibition of CBP (unknown origin)
[13] = molecular target: Histone acetyltransferase KAT2A (Homo sapiens, UniProt Q92830); experiment: Inhibition of human GCN5
[14] = molecular target: NAD-dependent protein deacetylase sirtuin-1 (Homo sapiens, UniProt Q96EB6); experiment: Inhibition of human SIRT-1
[15] = molecular target: T2, NAD-dependent protein deacetylase sirtuin-2; experiment: Inhibition of human SIRT-2
[16] = molecular target: T2, NAD-dependent protein deacetylase sirtuin-2; experiment: Inhibition of human SIRT-2 using fluor de Lys as substrate after 2 hrs by fluorescence assay
[17] = molecular target: T2, NAD-dependent protein deacetylase sirtuin-2
Description: Inhibition of recombinant human N-terminal His6-tagged SIRT-2 using ZMAL as substrate after 4 hrs by homogeneous fluorescent deacetylase assay

[18] = molecular target: T1, Lysine-specific histone demethylase 1A; experiment: Inhibition of N-terminal His-6-tagged full length human LSD-1 expressed in Escherichia coli BL21 (DE3) using H3K4me2 peptide as substrate at 1 uM by Western blotting analysis relative to control
[19] = molecular target: T1, Lysine-specific histone demethylase 1A; experiment: Inhibition of LSD-1 (unknown origin)
Homo sapiens [20] = organism: Homo sapiens; experiment: Selectivity ratio of IC50 for MAO-B (unknown origin) to IC50 for LSD-1 (unknown origin)
[21] = molecular target: T4, Histone-arginine methyltransferase CARM1 (Homo sapiens, UniProt Q86X55); experiment: Inhibition of full-length GST-tagged CARM-1 (unknown origin) expressed in Spodoptera frugiperda cells using histone H3 and tritiated-SAM as substrate
T4 sequence (Q86X55 whole entry): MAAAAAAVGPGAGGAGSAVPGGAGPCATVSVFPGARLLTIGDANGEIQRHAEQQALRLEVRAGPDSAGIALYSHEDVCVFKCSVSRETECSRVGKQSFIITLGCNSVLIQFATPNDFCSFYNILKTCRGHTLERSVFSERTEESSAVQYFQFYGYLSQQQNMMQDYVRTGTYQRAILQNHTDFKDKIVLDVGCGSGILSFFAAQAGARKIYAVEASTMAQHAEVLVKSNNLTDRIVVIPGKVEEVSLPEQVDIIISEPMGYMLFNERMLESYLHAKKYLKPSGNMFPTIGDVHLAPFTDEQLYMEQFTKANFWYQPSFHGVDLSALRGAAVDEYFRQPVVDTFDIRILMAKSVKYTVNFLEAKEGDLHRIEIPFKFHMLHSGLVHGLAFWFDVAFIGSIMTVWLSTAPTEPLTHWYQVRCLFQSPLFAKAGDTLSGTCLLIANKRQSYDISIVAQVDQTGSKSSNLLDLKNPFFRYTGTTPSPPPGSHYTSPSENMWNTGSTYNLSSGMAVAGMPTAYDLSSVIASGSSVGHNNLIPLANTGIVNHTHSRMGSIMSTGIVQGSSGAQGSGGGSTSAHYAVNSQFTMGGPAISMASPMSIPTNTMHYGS

Sequence of Egl nine homolog 1 (Q9GZT9 whole entry): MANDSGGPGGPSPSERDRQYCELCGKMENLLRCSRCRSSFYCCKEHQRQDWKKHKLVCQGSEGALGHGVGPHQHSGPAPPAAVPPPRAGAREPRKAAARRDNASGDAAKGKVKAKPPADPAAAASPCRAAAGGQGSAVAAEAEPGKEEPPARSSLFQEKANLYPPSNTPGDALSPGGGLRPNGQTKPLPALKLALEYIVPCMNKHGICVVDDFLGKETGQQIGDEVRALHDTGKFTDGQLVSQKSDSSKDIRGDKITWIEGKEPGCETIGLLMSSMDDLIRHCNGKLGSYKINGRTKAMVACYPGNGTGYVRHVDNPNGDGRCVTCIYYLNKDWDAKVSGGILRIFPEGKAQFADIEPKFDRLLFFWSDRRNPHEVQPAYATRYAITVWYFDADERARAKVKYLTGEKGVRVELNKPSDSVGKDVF
Sequence of Histone acetyltransferase p300 (Q09472 whole entry): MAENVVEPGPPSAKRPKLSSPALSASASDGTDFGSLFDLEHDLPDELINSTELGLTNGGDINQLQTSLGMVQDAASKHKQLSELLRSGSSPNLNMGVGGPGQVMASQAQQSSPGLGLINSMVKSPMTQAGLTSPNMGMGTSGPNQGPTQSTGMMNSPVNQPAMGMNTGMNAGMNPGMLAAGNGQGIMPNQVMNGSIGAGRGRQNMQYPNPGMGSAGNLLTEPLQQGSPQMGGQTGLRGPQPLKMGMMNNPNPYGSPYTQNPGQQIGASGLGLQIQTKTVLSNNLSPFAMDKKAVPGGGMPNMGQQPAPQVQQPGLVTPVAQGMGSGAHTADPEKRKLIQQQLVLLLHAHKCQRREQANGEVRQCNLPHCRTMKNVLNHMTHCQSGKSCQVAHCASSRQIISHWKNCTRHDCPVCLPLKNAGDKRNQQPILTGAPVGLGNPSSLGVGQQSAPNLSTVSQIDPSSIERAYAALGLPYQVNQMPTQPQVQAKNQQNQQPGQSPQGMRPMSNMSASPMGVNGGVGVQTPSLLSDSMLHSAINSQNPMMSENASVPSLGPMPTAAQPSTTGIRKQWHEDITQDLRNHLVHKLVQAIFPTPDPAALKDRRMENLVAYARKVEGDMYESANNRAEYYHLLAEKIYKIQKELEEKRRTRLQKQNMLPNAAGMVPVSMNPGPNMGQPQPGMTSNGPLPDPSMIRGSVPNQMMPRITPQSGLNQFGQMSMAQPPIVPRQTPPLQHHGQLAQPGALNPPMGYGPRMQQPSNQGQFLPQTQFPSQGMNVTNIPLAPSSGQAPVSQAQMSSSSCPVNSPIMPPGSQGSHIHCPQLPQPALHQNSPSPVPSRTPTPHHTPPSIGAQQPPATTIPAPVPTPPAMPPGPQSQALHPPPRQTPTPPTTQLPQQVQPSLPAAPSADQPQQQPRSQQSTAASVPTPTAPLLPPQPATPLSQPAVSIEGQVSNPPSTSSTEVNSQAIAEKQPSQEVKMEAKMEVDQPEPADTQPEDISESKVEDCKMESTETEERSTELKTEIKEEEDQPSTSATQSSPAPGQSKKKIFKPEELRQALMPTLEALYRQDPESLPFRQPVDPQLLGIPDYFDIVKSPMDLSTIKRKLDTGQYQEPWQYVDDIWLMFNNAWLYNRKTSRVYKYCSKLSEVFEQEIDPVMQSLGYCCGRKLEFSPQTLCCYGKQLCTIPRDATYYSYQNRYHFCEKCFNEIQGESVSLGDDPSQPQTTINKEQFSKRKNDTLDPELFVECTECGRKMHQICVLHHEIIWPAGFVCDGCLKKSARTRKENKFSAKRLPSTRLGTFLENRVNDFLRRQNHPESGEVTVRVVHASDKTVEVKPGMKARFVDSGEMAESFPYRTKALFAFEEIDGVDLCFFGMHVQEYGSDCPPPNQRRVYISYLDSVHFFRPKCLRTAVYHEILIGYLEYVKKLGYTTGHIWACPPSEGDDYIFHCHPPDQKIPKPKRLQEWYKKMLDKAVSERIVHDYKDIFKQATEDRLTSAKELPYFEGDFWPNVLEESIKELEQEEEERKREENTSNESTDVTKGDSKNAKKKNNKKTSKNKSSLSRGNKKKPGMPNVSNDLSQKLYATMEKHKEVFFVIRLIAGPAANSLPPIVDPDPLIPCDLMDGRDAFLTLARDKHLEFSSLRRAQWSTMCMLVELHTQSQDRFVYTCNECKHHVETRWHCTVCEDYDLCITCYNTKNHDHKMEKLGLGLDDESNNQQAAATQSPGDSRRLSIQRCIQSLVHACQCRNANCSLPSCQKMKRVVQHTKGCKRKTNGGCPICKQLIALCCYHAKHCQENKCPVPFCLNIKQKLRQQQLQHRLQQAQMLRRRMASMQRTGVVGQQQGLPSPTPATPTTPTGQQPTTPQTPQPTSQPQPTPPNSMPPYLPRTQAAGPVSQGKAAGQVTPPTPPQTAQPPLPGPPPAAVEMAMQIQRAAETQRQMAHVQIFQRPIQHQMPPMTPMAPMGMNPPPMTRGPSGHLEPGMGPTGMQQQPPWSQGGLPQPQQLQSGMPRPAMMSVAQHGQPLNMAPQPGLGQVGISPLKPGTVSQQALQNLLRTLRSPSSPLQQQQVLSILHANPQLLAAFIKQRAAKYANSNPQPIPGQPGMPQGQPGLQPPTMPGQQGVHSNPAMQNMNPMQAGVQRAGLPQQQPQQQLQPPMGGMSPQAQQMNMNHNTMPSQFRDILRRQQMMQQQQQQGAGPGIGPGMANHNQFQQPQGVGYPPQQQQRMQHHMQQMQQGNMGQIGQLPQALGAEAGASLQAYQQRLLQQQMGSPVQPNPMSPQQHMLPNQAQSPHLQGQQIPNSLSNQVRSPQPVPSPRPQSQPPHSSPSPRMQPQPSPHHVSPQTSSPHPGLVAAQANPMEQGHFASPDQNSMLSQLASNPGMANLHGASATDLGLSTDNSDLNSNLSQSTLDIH
Sequence of Histone acetyltransferase KAT2A (Q92830 whole entry): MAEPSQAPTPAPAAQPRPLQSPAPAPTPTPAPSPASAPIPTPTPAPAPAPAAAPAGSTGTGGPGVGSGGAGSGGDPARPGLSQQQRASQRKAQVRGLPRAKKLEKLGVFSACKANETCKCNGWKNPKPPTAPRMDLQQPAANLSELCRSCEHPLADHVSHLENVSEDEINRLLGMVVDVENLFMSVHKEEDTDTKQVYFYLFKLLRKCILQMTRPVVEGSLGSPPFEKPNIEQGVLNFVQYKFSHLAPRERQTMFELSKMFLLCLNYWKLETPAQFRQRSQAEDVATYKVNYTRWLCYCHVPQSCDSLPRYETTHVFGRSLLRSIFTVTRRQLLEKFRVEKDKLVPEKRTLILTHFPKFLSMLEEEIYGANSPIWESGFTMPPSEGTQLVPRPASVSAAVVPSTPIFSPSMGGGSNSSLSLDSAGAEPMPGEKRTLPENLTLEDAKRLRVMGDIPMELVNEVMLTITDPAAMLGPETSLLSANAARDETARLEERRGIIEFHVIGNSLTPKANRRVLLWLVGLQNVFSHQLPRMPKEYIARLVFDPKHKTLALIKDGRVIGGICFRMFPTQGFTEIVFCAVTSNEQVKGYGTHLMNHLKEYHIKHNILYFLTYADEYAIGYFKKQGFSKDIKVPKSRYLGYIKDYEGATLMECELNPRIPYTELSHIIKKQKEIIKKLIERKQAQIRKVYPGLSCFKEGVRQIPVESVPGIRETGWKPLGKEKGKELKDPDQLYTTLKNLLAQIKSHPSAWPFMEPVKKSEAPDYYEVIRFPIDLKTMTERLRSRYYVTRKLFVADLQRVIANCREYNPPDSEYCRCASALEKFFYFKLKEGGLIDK
Sequence of Lysine-specific demethylase 2A (Q9Y2K7 whole entry): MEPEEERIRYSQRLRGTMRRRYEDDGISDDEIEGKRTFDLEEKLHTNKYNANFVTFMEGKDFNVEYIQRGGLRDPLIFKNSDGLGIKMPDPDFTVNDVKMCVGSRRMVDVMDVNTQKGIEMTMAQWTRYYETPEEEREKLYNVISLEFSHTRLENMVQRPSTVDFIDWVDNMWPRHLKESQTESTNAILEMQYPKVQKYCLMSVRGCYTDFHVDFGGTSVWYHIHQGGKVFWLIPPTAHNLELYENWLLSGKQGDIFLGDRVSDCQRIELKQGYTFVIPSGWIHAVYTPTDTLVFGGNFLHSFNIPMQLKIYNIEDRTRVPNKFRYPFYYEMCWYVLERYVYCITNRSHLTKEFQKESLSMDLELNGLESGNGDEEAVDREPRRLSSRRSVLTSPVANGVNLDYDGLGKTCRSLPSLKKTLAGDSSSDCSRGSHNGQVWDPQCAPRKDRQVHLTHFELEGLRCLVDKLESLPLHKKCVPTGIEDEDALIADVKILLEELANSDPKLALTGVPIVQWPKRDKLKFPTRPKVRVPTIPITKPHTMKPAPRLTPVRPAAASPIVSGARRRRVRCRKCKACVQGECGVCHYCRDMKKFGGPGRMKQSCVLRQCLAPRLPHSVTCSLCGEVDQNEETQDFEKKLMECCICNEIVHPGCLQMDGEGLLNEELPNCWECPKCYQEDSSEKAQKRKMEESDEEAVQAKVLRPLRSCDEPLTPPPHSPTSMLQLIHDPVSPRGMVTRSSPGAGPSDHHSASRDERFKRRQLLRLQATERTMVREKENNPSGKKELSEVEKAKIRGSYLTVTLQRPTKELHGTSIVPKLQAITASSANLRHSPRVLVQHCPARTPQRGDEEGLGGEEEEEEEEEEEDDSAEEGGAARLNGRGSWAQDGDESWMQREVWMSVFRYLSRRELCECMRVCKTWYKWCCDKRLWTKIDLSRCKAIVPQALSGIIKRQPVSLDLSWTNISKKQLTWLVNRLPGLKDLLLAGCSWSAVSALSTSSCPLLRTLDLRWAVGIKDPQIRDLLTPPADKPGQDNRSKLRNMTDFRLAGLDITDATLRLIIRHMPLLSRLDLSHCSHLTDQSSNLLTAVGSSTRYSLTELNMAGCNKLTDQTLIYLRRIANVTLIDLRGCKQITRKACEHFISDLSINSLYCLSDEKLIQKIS

Structure (SMILES): NC(=O)c1ccccc1Nc1ccccc1 [ANILINOBENZAMIDE]
IC50 [3]: 74 µM

Structure (SMILES): O=C(/C=C/c1ccc(O)c(Br)c1)/C=C/c1cc(Br)c(O)c(Br)c1
IC50 [7]: 3 µM
Ratio IC50 (Homo sapiens [8]): 30
Ratio IC50 (Homo sapiens [9]): 10

Structure (SMILES): CCNCCCCCCCCCCCCCCCCNC/C=C/CNCCCCCCCCCCCCCCCCNCC
IC50 [12]: 5 µM

Structure (SMILES): C=C1C(=O)O[C@@H](CCC)[C@@H]1C(=O)O
IC50 (CREB-binding protein): 500 µM
IC50 [13]: 100 µM

Structure (SMILES): NCCc1ccc(O)c(O)c1 [DOPAMINE]
IC50 [10]: 3 µM

Structure (SMILES): CCCCCCCCCCC[C@]1(CO)CCCC(=O)O[C@](CO)(CCCCCCCCCCC)CCCC(=O)O1
IC50 [16]: 0.176 µM
IC50 [17]: 2 µM

Structure (SMILES): NC1CC1c1c(F)cc(F)cc1OCc1ccccc1 (stereo unspecified)
IC50 [19]: 0.99 µM
Ratio IC50 (Homo sapiens [20]): > 250

Structure (SMILES): C[C@](N)(Cc1ccc(O)c(O)c1)C(=O)O [METHYLDOPA]
IC50 [10]: 3 µM

Other lines, results leading:

IC50 [1]: 620 µM
Structure (SMILES): O=C(O)/C=C/C(=O)N(O)CCCCNCc1ccc(COC(=O)Nc2cccc3ccccc23)cc1

IC50 [2]: 7 µM
Structure (SMILES): C=C(C)[C@@H](CC=C(C)C)C[C@@]12C[C@@H](CC=C(C)C)C(C)(C)[C@@](CC=C(C)C)(C(=O)C(C(=O)c3ccc(O)c(O)c3)=C1O)C2=O [GARCINOL]

IC50 (Histone deacetylase): 0.135 µM
Structure (SMILES): O=C(CSSCC(=O)c1ccc(Br)cc1)c1ccc(Br)cc1

Kd [4]: 58.4 µM
IC50 (Egl nine homolog 1): 41.8 µM
IC50 [5]: 9.1 µM
Structure (SMILES): [N-]=[N+]=Nc1ccc(C(=O)N[C@@H](CCCCNC(=O)COCCOCCNC(=O)CCCC[C@@H]2SC[C@@H]3NC(=O)N[C@@H]32)C(=O)NCCCNC(=O)c2ccc(O)c3ncccc23)cc1

Selectivity ratio (Saccharomyces cerevisiae [6]): 5
Structure (SMILES): O=c1ccc2c(ccc3ccccc32)o1

IC50 [10]: 3 µM
Structure (SMILES): Oc1ccc(C2CNCCc3c2cc(O)c(O)c3Cl)cc1 (stereo unspecified) [FENOLDOPAM]

Selectivity ratio (Saccharomyces cerevisiae [11]): 13
Structure (SMILES): O=C1CCc2c(c(OCc3ccccc3)cc3ccccc23)O1

IC50 [14]: 9 µM
IC50 [15]: 22 µM
Structure (SMILES): CC(C)=CCC/C(C)=C/C[C@@H]1C[C@@]2(CC=C(C)C)C(=O)[C@](CC=C(C)C)(C(=O)C(C(=O)c3ccc(O)c(O)c3)=C2O)[C@@]1(C)CCC=C(C)C

inhibition [18]: > 50%
Structure (SMILES): N=C(NCCCNCCCCCCCNCCCNC(=N)NC(=N)NCCC(c1ccccc1)c1ccccc1)NC(=N)NCCC(c1ccccc1)c1ccccc1

IC50 [21]: 0.03 µM
Structure (SMILES): CNCCN1CCC(c2ccc3[nH]c(-c4ccccc4OC)c(F)c3c2)CC1
